For this assay, the system named is B6C3F1 mice, Lewis lung carcinoma iv, survival T/C. In words: NCI In Vivo Anticancer Drug Screen. Data for tumor model Lewis Lung Carcinoma (intravenous) in B6C3F1 mice. The following applies: endpoint: median survival time, higher = longer survival. An outline of the steps:
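Read-out is survival, expressed as the treated-group measurement over the vehicle control-group measurement. Animals bore a transplantable tumor and were given compound.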

Setting [1] is: dose: 12.5 mg/kg/injection, schedule: Q01DX009 (ip), vehicle: saline with Tween-80.
The mark [2] stands for this setting: dose: 25.0 mg/kg/injection, schedule: Q01DX009 (ip), vehicle: saline with Tween-80.
The mark [3] stands for this setting: dose: 50.0 mg/kg/injection, schedule: Q01DX009 (ip), vehicle: saline with Tween-80.
[4] abbreviates: dose: 100.0 mg/kg/injection, schedule: Q01DX009 (ip), vehicle: saline with Tween-80.
Setting [5] is: dose: 200.0 mg/kg/injection, schedule: Q01DX009 (ip), vehicle: saline with Tween-80.
The mark [6] stands for this setting: dose: 12.5 mg/kg/injection, schedule: Q01DX009 (ip), vehicle: saline.
The mark [7] stands for this setting: dose: 25.0 mg/kg/injection, schedule: Q01DX009 (ip), vehicle: saline.
Setting [8] is: dose: 50.0 mg/kg/injection, schedule: Q01DX009 (ip), vehicle: saline.
Where [9] appears, read: dose: 0.5 mg/kg/injection, schedule: Q01DX009 (ip), vehicle: saline.
Where [10] appears, read: dose: 0.37 mg/kg/injection, schedule: Q01DX009 (ip), vehicle: saline with Tween-80.
Where [11] appears, read: dose: 0.75 mg/kg/injection, schedule: Q01DX009 (ip), vehicle: saline with Tween-80.
The mark [12] stands for this setting: dose: 1.5 mg/kg/injection, schedule: Q01DX009 (ip), vehicle: saline with Tween-80.

Several values for one entry are separate records, joined by “and”; a condition that tells them apart may be missing. Equal entries are not always repeated. Toxic doses and inconclusive results are not listed.

For `CC(=O)C1=C(O)C2(O)C(=O)c3c(c(C)c4ccc(C)c(O)c4c3O)CC2C(N)C1=O` (stereo unspecified), the T/C runs as follows: (dose: 3.75 mg/kg/injection, schedule: Q01DX009 (ip), vehicle: saline + alcohol) 95 % of control and 105 % of control; (dose: 7.3 mg/kg/injection, schedule: Q01DX009 (ip), vehicle: saline + alcohol) 102 % of control; (dose: 7.5 mg/kg/injection, schedule: Q01DX009 (ip), vehicle: saline + alcohol) 95 % of control; (dose: 15.0 mg/kg/injection, schedule: Q01DX009 (ip), vehicle: saline + alcohol) 102 % of control and 107 % of control; (dose: 30.0 mg/kg/injection, schedule: Q01DX009 (ip), vehicle: saline + alcohol) 98 % of control and 107 % of control; (dose: 60.0 mg/kg/injection, schedule: Q01DX009 (ip), vehicle: saline + alcohol) 102 % of control and 110 % of control. The T/C (dose: 120.0 mg/kg/injection, schedule: Q01DX009 (ip), vehicle: saline + alcohol) was 112 % of control.
With `CCC1CC2CN(CCc3c([nH]c4ccccc34)C(C(=O)OC)(c3cc4c(cc3OC)N(C)C3C(O)(C(=O)OC)C(OC(C)=O)C5(CC)C=CCN6CCC43C65)C2)C1` (stereo unspecified), the T/C (dose: 0.06 mg/kg/injection, schedule: Q01DX009 (ip), vehicle: suspension in saline) is 103 % of control; the T/C (dose: 0.12 mg/kg/injection, schedule: Q01DX009 (ip), vehicle: suspension in saline) was 102 % of control; the T/C (dose: 0.25 mg/kg/injection, schedule: Q01DX009 (ip), vehicle: suspension in saline) is 108 % of control; the T/C (dose: 0.5 mg/kg/injection, schedule: Q01DX009 (ip), vehicle: suspension in saline) was 103 % of control; the T/C (dose: 1.0 mg/kg/injection, schedule: Q01DX009 (ip), vehicle: suspension in saline) is 112 % of control; the T/C (dose: 2.0 mg/kg/injection, schedule: Q01DX009 (ip), vehicle: suspension in saline) was 102 % of control.
As for `NCCCNCCSP(=O)(O)O`, the T/C runs as follows: under setting [1], 98 % of control; under setting [2], 98 % of control; under setting [3], 95 % of control; under setting [4], 106 % of control; under setting [5], 105 % of control.
As to `NC(Cc1ccc(N(CCCl)CCCl)cc1)C(=O)O` (stereo unspecified), the T/C runs as follows: (dose: 1.0 mg/kg/injection, schedule: Q01DX009 (ip), vehicle: saline with Tween-80) 98 % of control; (dose: 2.0 mg/kg/injection, schedule: Q01DX009 (ip), vehicle: saline with Tween-80) 100 % of control; (dose: 4.0 mg/kg/injection, schedule: Q01DX009 (ip), vehicle: saline with Tween-80) 104 % of control; (dose: 16.0 mg/kg/injection, schedule: Q01DX009 (ip), vehicle: saline with Tween-80) 101 % of control.
For the molecule `C[Si](C)(CCl)N[Si](C)(C)CCl`, the T/C is 104 % of control under setting [2]; 99 % of control under setting [3]; 107 % of control under setting [4]; 105 % of control (dose: 400.0 mg/kg/injection, schedule: Q01DX009 (ip), vehicle: saline with Tween-80).
Take `NC(=O)c1ccc[n+](Cc2c(Cl)cccc2Cl)c1`: the T/C was 104 % of control (dose: 5.0 mg/kg/injection, schedule: Q01DX009 (ip), vehicle: saline); 105 % of control (dose: 10.0 mg/kg/injection, schedule: Q01DX009 (ip), vehicle: saline); 104 % of control (dose: 20.0 mg/kg/injection, schedule: Q01DX009 (ip), vehicle: saline); 91 % of control (dose: 40.0 mg/kg/injection, schedule: Q01DX009 (ip), vehicle: saline).
As to `O=C1N(CC2CO2)CCN1CC1CO1` (stereo unspecified), the T/C was 114 % of control under setting [6], 112 % of control under setting [7] and 114 % of control under setting [8].
Regarding `CC1OC(OC2CC(O)(C(=O)CO)Cc3c(O)c4c(c(O)c32)C(=O)c2ccccc2C4=O)CC(N)C1O` (stereo unspecified), the T/C was 110 % of control (dose: 0.06 mg/kg/injection, schedule: Q01DX009 (ip), vehicle: water); 105 % of control (dose: 0.12 mg/kg/injection, schedule: Q01DX009 (ip), vehicle: other); 108 % of control (dose: 0.12 mg/kg/injection, schedule: Q01DX009 (ip), vehicle: saline); 122 % of control (dose: 0.12 mg/kg/injection, schedule: Q01DX009 (ip), vehicle: water); 113 % of control (dose: 0.25 mg/kg/injection, schedule: Q01DX009 (ip), vehicle: other); 103 % of control (dose: 0.25 mg/kg/injection, schedule: Q01DX009 (ip), vehicle: saline). The T/C (dose: 0.25 mg/kg/injection, schedule: Q01DX009 (ip), vehicle: water) is 112 % of control; the T/C under setting [9] was 110 % of control; the T/C (dose: 0.5 mg/kg/injection, schedule: Q01DX009 (ip), vehicle: water) is 120 % of control; the T/C (dose: 1.0 mg/kg/injection, schedule: Q01DX009 (ip), vehicle: water) is 173 % of control.
On to `CCCCOCN(COCCCC)C12CC3CC(CC(C3)C1)C2`, for which the T/C under setting [1] was 101 % of control; the T/C under setting [2] was 111 % of control; the T/C under setting [3] is 97 % of control; the T/C under setting [4] was 106 % of control; the T/C under setting [5] is 100 % of control.
On to `CC(O)CCC(=O)c1ccoc1` (stereo unspecified), for which the T/C was 105 % of control (dose: 0.62 mg/kg/injection, schedule: Q03HX027 (ip), vehicle: saline); 97 % of control (dose: 1.25 mg/kg/injection, schedule: Q03HX027 (ip), vehicle: saline); 103 % of control (dose: 2.5 mg/kg/injection, schedule: Q03HX027 (ip), vehicle: saline); 94 % of control (dose: 5.0 mg/kg/injection, schedule: Q03HX027 (ip), vehicle: saline).
Take `O=C1C(NCC(O)CO)=C(N2CC2)C(=O)C(NCC(O)CO)=C1N1CC1` (stereo unspecified): the T/C is 100 % of control under setting [9]; 98 % of control (dose: 1.0 mg/kg/injection, schedule: Q01DX009 (ip), vehicle: saline); 108 % of control (dose: 2.0 mg/kg/injection, schedule: Q01DX009 (ip), vehicle: saline); 116 % of control (dose: 4.0 mg/kg/injection, schedule: Q01DX009 (ip), vehicle: saline).
Turning to `C/C=C/C=C1/OC(C)=C(C(C)=O)C1=O`, the T/C is, setting by setting: under setting [1], 123 % of control; under setting [2], 108 % of control; under setting [3], 93 % of control; under setting [4], 103 % of control.
Consider `CC[C@@]1(O)C(=O)OCc2c1cc1n(c2=O)Cc2cc3ccccc3nc2-1`, for which the T/C was 102 % of control under setting [10], 105 % of control under setting [11] and 122 % of control under setting [12].
Turning to `Oc1ccc(CCl)c2cccnc12`, the T/C under setting [6] is 105 % of control; the T/C under setting [7] is 103 % of control; the T/C under setting [8] was 103 % of control; the T/C (dose: 100.0 mg/kg/injection, schedule: Q01DX009 (ip), vehicle: saline) is 98 % of control.
As for `O=C(O)C1CC(c2ccccc2)=NN1c1ccccc1` (stereo unspecified), the T/C (dose: 12.5 mg/kg/injection, schedule: Q01DX009 (ip), vehicle: water) is 102 % of control; the T/C (dose: 25.0 mg/kg/injection, schedule: Q01DX009 (ip), vehicle: water) is 97 % of control; the T/C (dose: 50.0 mg/kg/injection, schedule: Q01DX009 (ip), vehicle: water) was 102 % of control; the T/C (dose: 100.0 mg/kg/injection, schedule: Q01DX009 (ip), vehicle: water) is 112 % of control; the T/C (dose: 200.0 mg/kg/injection, schedule: Q01DX009 (ip), vehicle: water) was 106 % of control.
As for `COc1cc2c3c(cccc3c1)C(=O)N(CCN(C)C)C2=O`, the T/C (dose: 5.0 mg/kg/injection, schedule: Q01DX009 (ip), vehicle: saline with Tween-80) was 101 % of control; the T/C (dose: 10.0 mg/kg/injection, schedule: Q01DX009 (ip), vehicle: saline with Tween-80) was 110 % of control; the T/C (dose: 20.0 mg/kg/injection, schedule: Q01DX009 (ip), vehicle: saline with Tween-80) is 122 % of control; the T/C (dose: 40.0 mg/kg/injection, schedule: Q01DX009 (ip), vehicle: saline with Tween-80) is 101 % of control; the T/C (dose: 80.0 mg/kg/injection, schedule: Q01DX009 (ip), vehicle: saline with Tween-80) is 119 % of control.
On to `Cc1cc2c(C(C)C)c(O)c(O)c(C=O)c2c(O)c1-c1c(C)cc2c(C(C)C)c(O)c(O)c(C=O)c2c1O`, for which the T/C is 101 % of control under setting [10]; 101 % of control under setting [11]; 105 % of control under setting [12]; 106 % of control (dose: 3.0 mg/kg/injection, schedule: Q01DX009 (ip), vehicle: saline with Tween-80).

Source of the values: PubChem BioAssay AID276 (DTP/NCI, 2004).
